# Measurements from patent US6537577B1, “Method of prophylaxis for bovine mastitis” (Bio Medical Development Corporation, priority 2001, dated 2003).
# Values joined by “and” are separate entries in the source; they are usually repeats but may differ in a detail not shown here. Equal entries are not always repeated.
# Experiments:
# [1] = system: Staph. aureus ATCC 29740; assay: Excised teat study, preliminary trial; type: cell-based, Staphylococcus aureus; settings: for colony count per plate: plates 1-2, count no. 1 and 2
# Source text: To evaluate the microbicidal activity of the compositions of EXAMPLE 1 and EXAMPLE 2, basic excised teat models used for these experiments are based on providing procedures by Twomey, A, and M. A Arnold, National Dairy Lab. Report, Ruaburn Agric. Res. Center, Hamilton, New Zealand.
# Excess skin and tissue were trimmed, teats were washed in a mild detergent and warm water, rinsed in water, dried, and dipped in 70% ethyl alcohol. Teats were placed in plastic bags in a glycerin and water solution, and subsequently frozen at −20° C. until further use. Frozen teats were thawed in warm water, rinsed in water, dried, and dipped in 70% ethyl alcohol, dried with paper towels, and suspended by metal clips from a glass rod.
# The pathogen strain that was used for this study was Staph. aureus ATCC 29740. For preparation of Staph. aureus, five 6-ml tubes of trypticase soy broth (TSB) (Becton Dickinson, Cockeysville, Md.) were inoculated from a culture of Staph. aureus actively growing on trypticase soy agar (TSA) (Becton Dickinson) containing 5% bovine calf blood. These tubes were incubated for 5 to 7 hours at 37° C., and this culture was used to inoculate 250 ml of TSB, which was incubated on a gyratory shaker for 16 hours. After incubation, bacterial cells were pelleted by centrifugation at approximately 7000×g, washed twice in 0.1% proteose peptone (Difco Laboratories, Detroit, Mich.), and resuspended to approximately 200 ml in proteose peptone. Serial dilutions were prepared in proteose peptone, and 0.1 ml was plated on TSA. Plates, were incubated for 24 hours at 37° C. and colonies were counted to determine the microbial concentration of the stock suspension.
# (§1) Challenge suspensions of Staph. aureus containing approximately 1×10^8 cfu/ml of each organism (diluted with pasteurized milk) were prepared and used for the excised teat trials. The quenching solution was letheen broth (Difco Laboratories) modified to contain 1% sodium thiosulfate (Sigma Chemical Co., St. Louis, Mo.).
# Teats were dipped in a Staph. aereus bacterial suspension to a depth of 15 mm and allowed to drain for 5 minutes. Teats were then dipped into two coating formulations of EXAMPLE 1 and EXAMPLE 2, (Formula No. 3 and Formula No. 5, respectively) to a depth of approximately 30 mm and allowed to drain for 10 minutes. […] The coating was then removed from each teat using a sterile cotton swab by rolling the edge of the softened film using a downward motion toward the teat apex, placed in 5 ml of quencher in sterile blood dilution vials (Baxter Diagnostics, McGaw Park, Ill.), mixed by vortexing for 5 seconds, and after serial dilution, a 0.1-ml aliquot was plated onto TSA. The quenching solution (Bacto-Letheen Broth) was used to inactivate the chlorhexidine germicide and prevent further bacterial killing upon culture. Immediately after the dried coating products were removed from the teats, each teat was rinsed to a total volume of 5 ml of quencher, the rinse collected in sterile blood dilution vials (Baxter Diagnostics) separate from the peelings, mixed by vortexing for 5 seconds, and after serial dilution, a 0.1-ml aliquot was plated to determine the number of organisms remaining on the teat after removal of the coating.
# [2] = system: Staph. aureus ATCC 29740; assay: Excised teat study, Trial 1; type: cell-based, Staphylococcus aureus
# Method: (§2) Teats were prepared as described earlier. The pathogen strains that were used for this study were Staph. aureus ATCC 29740 and Strep. Agalactiae ATCC 27956. A culture of Strep. Agalactiae was prepared by thawing a frozen vial of Strep. Agalactiae and plating on a TSA blood plate. After 24 hours incubation at 37° C., five 6-ml tubes of TSB were inoculated with approximately six colonies of Strep. Agalactiae each. These cultures were incubated at 37° C. for approximately 16 hours and then used to inoculate 250 ml of TSB. This culture was incubated on a gyratory shaker for approximately 5.5 hours. Serial dilutions were prepared in proteose peptone, and 0.1 ml was plated on TSA. Plates were incubated for 24 hours at 37° C. and colonies were counted to determine the microbial concentration of the stock suspension.
# as §1, with “The dilution required to prepare a challenge inoculum of approximately 1×10^8 colony-forming units (cfu)/ml of Staph. aureus or Strep. […] Challenge” for “Challenge”, “aureus and Strep. Agalactiae” for “aureus”
# (§3) Agalactiae, respectively. […] Teats were dipped in the bacterial challenge suspensions once to a depth of approximately 15 mm and allowed to drain for 5 minutes, then dipped with the test products to a depth of approximately 30 mm and drained for an additional 10 minutes. For the challenged, but undipped negative control teats, the drainage time was 15 minutes. […] This coating film peeling from each teat was placed in sterile blood dilution vials (Baxter Diagnostics). Remaining organisms on teat skin were then removed by rinsing each teat with approximately 5 ml of quencher expressed from a polyethylene wash bottle into the same vial containing the coating film peeling. Each vial was vortexed for 5 seconds before plating.
# (§4) For all three trials, serial dilutions of peelings or rinses were made in 0.1% proteose peptone, and platinf was in 0.1-ml aliquots on Mannitol Salt agar (Becton Dickinson) for Staph. aureus and TKT/FC agar (Bccton Dickinson) with 0.3% thallium acetate (Sigma Chemical Co.) for Strep. Agalactiae. […] Plates were incubated for 24 hours at 37° C. and colonies were counted. The geometric mean count of the plates was determined, multiplied by […] to express the total volume of rinse, and then multiplied by the dilution factor to yield the total cfu per teat. In cases in which no organisms were recovered from a teat, the value of 0.01 was substituted fro zero in order statistically determine the mean cfu counts.
# (§5) The same set of teats was used for each trial. […]
# [3] = system: Strep. Agalactiae ATCC 27956; assay: Excised teat study, Trial 2; type: cell-based, Streptococcus agalactiae
# Method: as §2
# as §1, with “The dilution required to prepare a challenge inoculum of approximately 1×10^8 colony-forming units (cfu)/ml of Staph. aureus or Strep. […] Challenge” for “Challenge”, “aureus and Strep. Agalactiae” for “aureus”
# as §3, §4, §5
# [4] = log of total organisms recovered
# [5] = of plate counts at the treatment's dilution
# [6] = peeling and rinse combined, total cfu per teat
compound,measurement,setting,value
"CC(=O)O [2.5% acetic acid, acetic acid]",Total organisms Recovered,[1],"16,029,000"
same,colony count per plate,[1]; Dilution −3,TNTC^1 and TNTC
same,colony count per plate,[1]; Dilution −4,327 and 268 and 460 and 262
same,Log,[1]; [4],7.20
same,Geometric Mean,"[1]; of plate counts, dilution −4",320.58^3
same,Log reduction,[1]; versus negative control,0.44
same,Log,[2]; [4],6.66
same,Geometric Mean,[2]; [5],92.41
same,Total organisms Recovered,[2]; [6],"4,620,500"
same,Log reduction,[2]; versus negative control,0.76
same,Log,[3]; [4],6.11
same,Geometric Mean,[3]; [5],25.98
same,Total organisms Recovered,[3]; [6],"1,299,000"
same,Log reduction,[3]; versus negative control,0.93
